Assay results: patent US7456197B2, “Pyridinium cationic lipids as gene transfer agents” (The Texas A&M University System, priority 2003, dated 2008)
“Also recorded” adds a separate entry of the source.

Assays:
[1] = Critical (phase transition) temperature Tc by differential scanning calorimetry; format: physicochemical
Method in brief: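 Phase transition temperature Tc of the cationic lipids measured by differential scanning calorimetry at a heating rate of 5 °C/minute.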

[2] = system: prostate carcinoma DU-145; test: Luciferase (pGL3) transfection efficiency of lipoplexes, DU-145; format: cell-based; details: optimized lipoplexes, Chol 1:1, FIG. 7
Text: (§1) It is well known that specific cell types and cell lines may vary in their ability to be transfected. In addition to the NCI-H23 lung cancer cell line, we therefore tested our optimized formulation of 5AMyr/Chol 1:1 versus DOTAP/Chol 1:1 as reference on four other cell lines from tumors representing cancers of great importance to human health, as well as different tissues of origin: breast carcinomas MCF-7, MDA-Mb231, prostate carcinoma DU-145 and glioma SWB-95 (FIG. 7).
(§2) Dioleoylphosphatidylethanolamine (DOPE), cholesterol (CHOL), N-(2,3-dioleoyloxypropyl)-N,N,N-trimethylammonium chloride (DOTAP) were commercial products. The purity of the lipids was checked by thin layer chromatography and also by differential scanning calorimetry (DSC), which was also used for determining the critical temperature Tc. For the preparation of the liposomes a protocol optimized for this type of compounds was adopted as follows. The cationic lipid (with or without helper lipid) was dissolved in chloroform/methanol (2/1, v/v) to reach a final concentration of 1 mM for the charged species. […]
(§3) For the luciferase assay, 20 μL of cell lysate was aliquoted in a test tube and assessed directly using a luciferase assay kit from Promega by means of a luminometer.
(§4) The protein content was quantified using a bicinchoninic acid (BCA) assay. […]

cancer cell line NCI-H23 = test: WST-1 viability assay of transfected cells; format: cell-based, human
Protocol: FIG. 6. Viability assay results for the cancer cell line NCI-H23 transfected with 5AMyr-5EMyr and DOTAP (Cl^−)-based lipoplexes. The other characteristics were the same as in the transfection experiment represented in FIG. 5.
In order to assess the cytotoxicity associated with every anion, a WST-1^28 viability assay was conducted in parallel.

breast carcinoma MCF-7 = test: Luciferase (pGL3) transfection efficiency of lipoplexes, MCF-7; format: cell-based; details: optimized lipoplexes, Chol 1:1, FIG. 7
Text: as §1, §2, §3, §4

CCCCCCCCCCCCCC(=O)OCC(COC(=O)CCCCCCCCCCCCC)[n+]1c(C)cc(C)cc1C.F[P-](F)(F)(F)(F)F [Lipid 5AMyr, 1-(1,3-dimyristoyloxypropane-2-yl)-2,4,6-trimethylpyridinium hexafluorophosphate]
Tc (critical temperature), Pure ([1]; pure lipid): 67.8 °C
Tc (critical temperature), With DOPE (1:1 molar ratio) ([1]; with DOPE, 1:1 molar ratio): 22.4 °C
Tc (critical temperature), With cholesterol (1:1 molar ratio) ([1]; with cholesterol, 1:1 molar ratio): 64.8 °C
transfection efficiency (luciferase activity normalized for protein) [2]: 327 RLU/μg of protein
cytotoxicity (WST-1 viability) (cancer cell line NCI-H23; NCI-H23 transfected with lipoplexes, Chol 1:1, FIG. 6): minimum cytotoxicity; also recorded: lower cytotoxic effect
cytotoxic effect on longer cell exposure to lipoplexes (cancer cell line NCI-H23; exposure from one hour to three hours, data not shown): without any visible cytotoxic effect
transfection efficiency (luciferase activity normalized for protein) (breast carcinoma MCF-7): 206000 RLU/μg of protein
